Patent US5272143A, “6-oxoazepinoindole compounds, and pharmaceutical compositions containing them” (Kali-Chemie Pharma GmbH, priority 1991, dated 1993)

Assays:
Mouse = test system: Mouse; design: species or system Male mice; details: in vivo, po, 4320 min
Procedure: 1. Determination of the minimum toxic dose.
Male mice of 20-25 g weight are administered maximum doses of 300 mg/kg of the test substance p.o. The animals were carefully observed for 3 hours for symptoms of toxicity. Over a period of 72 hours after administration, all symptoms and cases of death are additionally recorded. Concomitant symptoms are likewise observed and recorded. If death or strong toxic symptoms are observed, further mice are administered increasingly lower doses until toxic symptoms no longer occur. The lowest dose which causes death or strong toxic symptoms is given in the following Table A as the minimum toxic dose. The example numbers given in Table A relate to the subsequent preparation examples.

stomach motility = experiment: Determination of effect on stomach motility in anaesthetised rats; format: in vivo, rats of the SIV 50 strain; details: rat
Procedure: 2. Determination of effect on stomach motility in anaesthetised rats.
For the tests, groups of 5-6 fasting rats of the SIV 50 strain having a body weight of 220-290 g were used in each test which had been anaesthetised with a ketamine/xylazine mixture. The animals received an initial dose of 1 ml/kg of a solution of 50 mg/ml of ketamine and 10 mg/ml of xylazine administered i.p., and the anaesthetic level was maintained by a continuous intraperitoneal infusion of the same solution at an infusion rate of 1 ml/kg/h. The animals were tracheotomised and laparotomised. After applying a pylorus ligature, a stomach tube was inserted into the stomach and connected at the other end by means of a three-way tap to a calibrated pressure transducer (Statham Element P 23 ID). A corresponding tube was inserted rectally 8-9 cm into the colon and likewise connected in the same manner to a calibrated pressure transducer of the same type. The stomachs of the animals were then filled with 2 ml of water via the tube. After a stabilisation phase of 40 min, the pressure variations in the stomach and colon were measured over a test period of 2 hours and 20 minutes, and the amplitudes produced by the phasic gastric motility were recorded by means of a Watanabe multirecorder (MC 6621). The geometric mean values of the amplitudes during the first 20 min were determined for the individual animals and used as control amplitude values. After the first 20 min, the test substances were administered i.p. The maximum increase in amplitude (=mean value of the 20 minute period in which the highest increase in amplitude occurs) caused by the test substances was determined in % increase of the control amplitude values determined before administration of the test substances, and the mean value for the animal group is given in the following Table A. In addition, the maximum increase in the mean gastric tone caused by the test substances during the test period compared with the mean gastric tone existing before administration of the test substances was recorded. This increase in gastric tone is given in Table A in cm of H2 O (mean value of the animal group). In the colon, the test substances cause amplitude damping.

5-HT1-like receptors = experiment: Serotonin-agonistic contractions in segments of the isolated basilar artery of the pig (in vitro antimigraine activity); format: cell-based; details: porcine basilar artery, in vitro; for pD2 = neg. log of Concentration Which Produces 50% of Maximum Contraction: concentrations in mol/l
Text: 3. Investigation of Properties Indicating Antimigraine Activity of Test Substance in vitro. Migraine pains are associated with excessive dilation of the cranial vascular system. […] This property of the test substances can be used as a basis for predicting anti-migraine activity. The serotoninagonistic activity of the substances on 5-HT1 -like receptors can be determined in vitro in isolated organ strips from the basilar artery of a pig. […] Such a contraction is also produced by the test substances and is a good index of the antimigraine activity of the substances. The tests are carried out according to the method described by van Charldorp et al. (Naunyn-Schmiedeb. Arch. Pharmacol. supp. to volume 341, R89, 1990 and Eur. J. Pharmacol. 183, 1106-1107, 1990). Experimental description of the in vitro determination of the effect inducing serotonin-agonistic contractions in segments of the isolated basilar artery of the pig. For the experiment, helical segments of the basilar artery of pigs were used which were isolated from pig brains supplied by a slaughterhouse. Each strip was fixed in an organ bath consisting of 10 ml of a modified Tyrode solution such that the tissue was under a tension of 10 mN. […] The solution was modified by adding 10^-8 mol/l of indomethacin, 10^-7 mol/l of atropine and 10^-7 mol/l of propanolol and adjusted to pH=7.4. The bath was aerated with a mixture of 95% O2 and 5% CO2. After an equilibration phase of 1 hour a contraction of the tissue was produced twice, in each case by addition of serotonin at a concentration of 10^-5 mol/l and the preparation was subsequently washed out. The contraction effect was then measured with increasing serotonin concentration and a cumulative concentration effect curve for serotonin was drawn up. A cumulative concentration effect curve was drawn up for the test substance on the same preparation (after washing out again). In the following Table B, the maximum contraction caused by the test substances in relationship to the maximum contraction produced by serotonin, and the negative logarithm of that concentration of the test substance which produces 50% of the maximum contraction which can be produced by this test substance (=pD2), and the relative potency calculated as pD2 of the test substance relative to the pD2 of serotonin determined on the same piece of artery are given.

[1] = ip, 10 μmole/kg i.p., read-out: Maximum Amplitude Increase (increase in % of control amplitude)

Row | SMILES | Minimum Toxic Dose (Mouse) [mg/kg] | change in vivo at 10 µmol/kg (stomach motility; [1]) [%] | Gastric Tone Increase (stomach motility; 10 μmole/kg i.p.) [cm H2O] | Maximum Contraction Produced by Test Substance Relative to Maximum Contraction Produced by Serotonin = 1 (5-HT1-like receptors) | relative potency calculated as pD2 of the test substance relative to the pD2 of serotonin determined on the same piece of artery (5-HT1-like receptors) | pD2 = neg. log of Concentration Which Produces 50% of Maximum Contraction (5-HT1-like receptors) | change in vivo at 100 µmol/kg (stomach motility; ip, 100 μmole/kg i.p., read-out: Maximum Amplitude Increase (increase in % of control amplitude)) [%] | Gastric Tone Increase (stomach motility; 100 μmole/kg i.p.) [cm H2O]
1 | NCC1CNC(=O)c2cccc3[nH]cc1c23 (racemic) [Example 1, 3-Aminomethyl-3,4,5,6-tetrahydro-6-oxo-1H-azepino[5,4,3-cd]indole] | > 300 | 449 | 7.4 | 0.8 | 0.132 | 6.5 |  | 
2 | CNCC1CNC(=O)c2cccc3[nH]cc1c23 (racemic) [Example 4, 3-Methylaminomethyl-3,4,5,6-tetrahydro-6-oxo-1H-azepino[5,4,3-cd]indole] | > 300 |  |  | 0.6 | 0.208 | 6.8 | 532 | 9.0
3 | Cn1cc2c3c(cccc31)C(=O)NCC2CN (stereo not drawn) [Example 9, 1-methyl-3-aminomethyl-3,4,5,6-tetrahydro-6-oxo-1H-azepino[5,4,3-cd]indole] | > 300 | 334 | 5.5 | 0.5 | 0.124 | 6.4 |  | 
